The source of these data is patent US20110312941A1, “1,4-DISUBSTITUTED PIPERIDINES AS VASOPRESSIN RECEPTOR VIA ANTAGONISTS” (VANTIA LIMITED, priority 2009, published 2011).

Molecules are shown by their SMILES.

T1 sequence (P37288 whole entry): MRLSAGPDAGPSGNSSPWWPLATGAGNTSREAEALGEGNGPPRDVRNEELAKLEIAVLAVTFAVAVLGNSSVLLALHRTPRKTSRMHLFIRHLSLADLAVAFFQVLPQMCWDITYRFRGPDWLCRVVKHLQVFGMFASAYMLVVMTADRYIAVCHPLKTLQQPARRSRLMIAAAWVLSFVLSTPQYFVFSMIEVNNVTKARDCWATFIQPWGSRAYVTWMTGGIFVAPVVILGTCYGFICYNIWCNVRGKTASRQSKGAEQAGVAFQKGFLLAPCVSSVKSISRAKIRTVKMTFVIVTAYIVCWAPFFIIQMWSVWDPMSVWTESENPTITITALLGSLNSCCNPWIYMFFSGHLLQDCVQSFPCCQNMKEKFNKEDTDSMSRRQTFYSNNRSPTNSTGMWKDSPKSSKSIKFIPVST

The experiment addresses T1, cloned human V1a receptor (Homo sapiens, UniProt P37288).
T1 construct: host or cells: human brain astrocytoma 1321N1 cells
The experiment is described as follows: in vitro functional calcium mobilisation assay (FLIPR), antagonist activity, 1321N1 cells, 250 pM AVP. It is filed as cell-based. Conditions: functional pKi derived from pIC50 (Equation 1), FLIPR Ca2+ mobilisation, 1321N1 cells expressing cloned human V1a receptor, read-out: Mean fpKi (Human V1a) (converted). The protocol: The primary assay which may be used to determine the ability of the compounds of formula (1) to inhibit the vasopressin V1a receptor is an in vitro functional calcium mobilisation assay (FLIPR) that measures antagonist activity at a cloned human V1a receptor. The assay is described below.
The antagonist activity of compounds of formula (1) were determined in a Calcium (Ca2+) mobilisation assay using whole cells (human brain astrocytoma 1321N1 cells, ex Perkin Elmer) genetically modified to stably express a cloned human V1a receptor. Dose response curves were determined by displacement of a single concentration of agonist (250 pM AVP, ex Sigma) with increasing concentrations of compound. A pIC50 value is determined by non-linear regression to a 4-parameter logistic equation and a functional pKi (fpKi) derived using Equation 1.
where A=agonist single conc, and A50=the agonist EC50.
On to `Cc1cccc(N2CCC(C(=O)N3CCc4nc(C)[nH]c4-c4cc(Cl)ccc43)CC2)c1` [Example 90], for which the Ki was 9.55 nM.

In the case of `O=C(C1CCN(c2ccccc2F)CC1)N1Cc2cccn2Cc2ccccc21` [Example 154], the Ki was 1.48 nM.

Regarding `O=C(C1CCN(c2ccc(F)cc2)CC1)N1Cc2cccn2Cc2ccccc21` [Example 156], the Ki was 1.45 nM.

Turning to `CCn1ncc2c1Nc1cc(Cl)ccc1N(C(=O)C1CCN(c3cccc(C)n3)CC1)C2` [Example 126], the Ki is 1.2 nM.

Take `O=C(C1CCN(c2ccccc2)CC1)N1CCc2nc(Cc3ccccc3)[nH]c2-c2cc(Cl)ccc21` [Example 82]: the Ki is 42.7 nM.

On to `Cc1nc2c([nH]1)-c1cc(Cl)ccc1N(C(=O)C1CCN(c3cccc(F)c3)CC1)CC2` [Example 84], for which the Ki was 38 nM.

For the compound `Cc1ccc(N2CCC(C(=O)N3CCc4nc(N5CCN(C)CC5)[nH]c4-c4cc(C)ccc43)CC2)nc1` [Example 30], the Ki is 1.78 nM.

With `O=C(C1CCN(c2ccccc2)CC1)N1CCc2nc(-c3ccccc3)[nH]c2-c2cc(Cl)ccc21` [Example 79], the Ki was 77.6 nM.

`Cc1nc2c([nH]1)-c1cc(Cl)ccc1N(C(=O)C1CCN(c3ccc(C(C)C)cc3)CC1)CC2` [Example 97]: the Ki is 22.4 nM.

Regarding `CCc1ccc(N2CCC(C(=O)N3Cc4cnn(C)c4Nc4cc(Cl)ccc43)CC2)cc1` [Example 139], the Ki is 0.912 nM.

Regarding `Cc1ccc2c(c1)-c1[nH]c(N3CCOCC3)nc1CCN2C(=O)C1CCN(c2ccccn2)CC1` [Example 31], the Ki was 3.8 nM.

As to `Cc1nc2c([nH]1)-c1cc(Cl)ccc1N(C(=O)C1CCN(c3ccccn3)CC1)CC2` [Example 44], the Ki was 12.6 nM.

Take `CCCc1nc2c([nH]1)-c1cc(Cl)ccc1N(C(=O)C1CCN(c3ccccn3)CC1)CC2` [Example 47]: the Ki was 11.7 nM.

With `Cc1ccc2c(c1)-c1nc(CC(C)C)[nH]c1CCN2C(=O)C1CCN(c2ccccn2)CC1` [Example 28], the Ki is 13.5 nM.

Regarding `CCc1nc2c([nH]1)-c1cc(C)ccc1N(C(=O)C1CCN(c3cc(C)ccn3)CC1)CC2` [Example 18], the Ki is 2.29 nM.

As for `Cc1ccnc(N2CCC(C(=O)N3Cc4cnn(C)c4Nc4cc(C)ccc43)CC2)c1` [Example 111], the Ki was 2.4 nM.

For the compound `Cc1ccc(N2CCC(C(=O)N3Cc4cnn(Cc5ccccc5)c4Nc4cc(C)ccc43)CC2)nc1` [Example 114], the Ki was 20 nM.

In the case of `Cc1nc2c([nH]1)-c1ccccc1N(C(=O)C1CCN(c3ncccn3)CC1)CC2` [Example 6], the Ki is 912 nM.

Turning to `O=C(C1CCN(c2ccccn2)CC1)N1CCc2nc(Cc3ccccc3)[nH]c2-c2cc(Cl)ccc21` [Example 56], the Ki was 79.4 nM.

Consider `Cc1ccnc(N2CCC(C(=O)N3CCc4nc(N5CCOCC5)[nH]c4-c4cc(Cl)ccc43)CC2)c1` [Example 58], for which the Ki is 0.646 nM.

Take `CCCc1ccc(N2CCC(C(=O)N3Cc4cccn4Cc4ccccc43)CC2)cc1` [Example 166]: the Ki was 3.89 nM.

Take `O=C(C1CCN(c2ncccn2)CC1)N1Cc2cnn(-c3ccccc3)c2Nc2cc(Cl)ccc21` [Example 104]: the Ki was 14.1 nM.

For the compound `CCn1ncc2c1Nc1cc(F)ccc1N(C(=O)C1CCN(c3ccc(C)cn3)CC1)C2` [Example 107], the Ki is 1.91 nM.

On to `Cc1nc2c([nH]1)-c1cc(Cl)ccc1N(C(=O)C1CCN(c3ccccc3C)CC1)CC2` [Example 89], for which the Ki was 25.7 nM.

Consider `Cc1ccc(N2CCC(C(=O)N3CCc4[nH]c(CC(C)C)nc4-c4cc(C)ccc43)CC2)nc1` [Example 29], for which the Ki is 2.69 nM.

On to `Cc1cccnc1N1CCC(C(=O)N2CCc3nc(N4CCOCC4)[nH]c3-c3cc(F)ccc32)CC1` [Example 14], for which the Ki is 2.51 nM.

Take `O=C(C1CCN(c2cccc(F)c2)CC1)N1Cc2cccn2Cc2ccccc21` [Example 155]: the Ki was 4.57 nM.
